Results as given in patent US7105522B2, “HIV inhibiting pyrazinone derivatives” (Janssen Pharmaceutica, N.V., priority 2001, dated 2006).
Like-named read-outs stand apart in the source and are kept apart here.

Legend:
HIV-1 = test: microbe, parasite or virus in culture; assay type: cell-based; settings: for IC50: HIV-infected MT-4 cells, MTT, OD 540 nm, read-out: IC50 (50% inhibitory concentration, dose achieving 50% protection); for SI (selectivity index, ratio of CC50 to IC50): MT-4 cells
Procedure: A rapid, sensitive and automated assay procedure was used for the in vitro evaluation of anti-HIV agents. An […] T4-cell line, MT-4, which was previously shown (Koyanagi et al., Int. J. Cancer, 36, 445–451, 1985) to be highly susceptible to and permissive for HIV infection, served as the target cell line. Inhibition of the HIV-induced cytopathic effect was used as the end point. The viability of both HIV- and mock-infected cells was assessed spectrophotometrically via the in situ reduction of 3-(4,5-dimethylthiazol-2-yl)-2,5-diphenyltetrazolium bromide (MTT). The 50% cytotoxic concentration (CC50 in μM) was defined as the concentration of compound that reduced the absorbance of the mock-infected control sample by 50%. The percent protection achieved by the compound in HIV-infected cells was calculated by the following formula:
(§1) [formula] whereby (ODT)HIV is the optical density measured with a given concentration of the test compound in HIV-infected cells; (ODC)HIV is the optical density measured for the control untreated HIV-infected cells; (ODC)MOCK is the optical density measured for the control untreated mock-infected cells; all optical density values were determined at 540 nm. The dose achieving 50% protection according to the above formula was defined as the 50% inhibitory concentration (IC50 in μM). The ratio of CC50 to IC50 was defined as the selectivity index (SI).

[1] = Cytotoxicity in mock-infected MT-4 cells (MTT); assay type: cell-based; settings: human, OD 540 nm, read-out: CC50 (50% cytotoxic concentration)
Procedure: (§2) A rapid, sensitive and automated assay procedure was used for the in vitro evaluation of anti-HIV agents. […] Inhibition of the HIV-induced cytopathic effect was used as the end point. The viability of both HIV- and mock-infected cells was assessed spectrophotometrically via the in situ reduction of 3-(4,5-dimethylthiazol-2-yl)-2,5-diphenyltetrazolium bromide (MTT). […] The percent protection achieved by the compound in HIV-infected cells was calculated by the following formula:
as §1, with “The dose achieving 50% protection according to the above formula was defined as the 50% inhibitory concentration (IC50 in μM).” left out

mock-infected MT-4 cells = test: Cytotoxicity in mock-infected MT-4 cells (MTT); assay type: cell-based; settings: OD 540 nm, read-out: CC50 (50% cytotoxic concentration)
Procedure: as §2
as §1, with “The dose achieving 50% protection according to the above formula was defined as the 50% inhibitory concentration (IC50 in μM).” left out

[2] = Human immunodeficiency virus 1, MT4

Row | melting point | SMILES | IC50 (HIV-1; [2]) | SI (selectivity index, ratio of CC50 to IC50) (HIV-1) | CC50 [1] | IC50 (HIV-1) | CC50 (mock-infected MT-4 cells)
1 |  | Cc1cc(C)c(Sc2cn(C)c(=O)c(Nc3ccc(Cl)cc3)n2)c(C)c1 [Compound 14, 3-[(4-chlorophenyl)amino]-1-methyl-5-[(2,4,6-trimethylphenyl)thio]-2(1H)-pyrazinone] | 0.0794 µM | 1259 | 99.9 µM |  | 
2 |  | Cc1ccc(Oc2cn(C)c(=O)c(Nc3ccc(C#N)cc3)n2)c(C)c1 [Compound 3, 4-[[6-(2,4-dimethylphenoxy)-3,4-dihydro-4-methyl-3-oxopyrazinyl]amino]-benzonitrile] |  |  |  | 0.0006 µM | 95.1 µM
3 |  | Cc1ccc(Sc2cn(C)c(=O)c(Nc3ccc(C#N)cc3)n2)c(C)c1 [Compound 21, 4-[[6-[(2,4-dimethylphenyl)thio]-3,4-dihydro-4-methyl-3-oxopyrazinyl]amino]-benzonitrile] |  |  |  | 0.005 µM | 99.8 µM
4 |  | Cc1cc(C)c(S(=O)(=O)c2nc(Nc3ccc(C#N)cc3)c(=O)n(C)c2C)c(C)c1 [Compound 17, 4-[[3,4-dihydro-4,5-dimethyl-3-oxo-6-[(2,4,6-trimethylphenyl)sulfonyl]pyrazinyl]amino]-benzonitrile] | 0.005 µM | 19953 | 99.8 µM |  | 
5 |  | Cc1cc(C)c(S(=O)(=O)c2cn(C)c(=O)c(Nc3ccc(C#N)cc3)n2)c(C)c1 [Compound 15, 4-[[3,4-dihydro-4-methyl-3-oxo-6-[(2,4,6-trimethylphenyl)sulfonyl]pyrazinyl]amino]-benzonitrile] |  |  |  | 0.0079 µM | 99.4 µM
6 |  | Cc1ccc(Oc2cn(C)c(=O)c(Nc3ccc(C(F)(F)F)cc3)n2)c(C)c1 [Compound 11, 5-(2,4-dimethylphenoxy)-1-methyl-3-[[4-(trifluoromethyl)phenyl]amino]-2(1H)-pyrazinone] | 0.501 µM | 200 | 100 µM |  | 
7 |  | Cc1ccc(S(=O)(=O)c2nc(Nc3ccc(C#N)cc3)c(=O)n(C)c2C)c(C)c1 [Compound 16, 4-[[6-[(2,4-dimethylphenyl)sulfonyl]-3,4-dihydro-4,5-dimethyl-3-oxopyrazinyl]amino]-benzonitrile] | 0.0316 µM | 3162 | 99.9 µM |  | 
8 |  | Cc1ccccc1Sc1cn(C)c(=O)c(Nc2ccc(C#N)cc2)n1 [Compound 4, 4-[[3,4-dihydro-4-methyl-6-[(2-methylphenyl)thio]-3-oxopyrazinyl]amino]-benzonitrile] | 0.02 µM | 5012 | 100 µM |  | 
9 |  | Cc1ccccc1Oc1nc(Nc2ccc(C#N)cc2)c(=O)n(C)c1C [Compound 19, 4-[[3,4-dihydro-4,5-dimethyl-6-(2-methylphenoxy)-3-oxopyrazinyl]amino]-benzonitrile] | 0.005 µM | 19953 | 99.8 µM |  | 
10 |  | Cc1ccc(Oc2nc(Nc3ccc(C#N)cc3)c(=O)n(C)c2C)c(C)c1 [Compound 20, 4-[[6-(2,4-dimethylphenoxy)-3,4-dihydro-4,5-dimethyl-3-oxopyrazinyl]amino]-benzonitrile] | 0.0025 µM | 39811 | 99.5 µM |  | 
11 |  | Cc1ccc(Oc2cn(C)c(=O)c(Nc3ccccc3)n2)c(C)c1 [Compound 7, 5-(2,4-dimethylphenoxy)-1-methyl-3-(phenylamino)-2(1H)-pyrazinone] | 0.2 µM | 501 | 99.9 µM |  | 
12 |  | Cc1cc(C)c(Sc2cn(C)c(=O)c(Nc3ccc(C#N)cc3)n2)c(C)c1 [Compound 13, 4-[[3,4-dihydro-4-methyl-3-oxo-6-[(2,4,6-trimethylphenyl)thio]pyrazinyl]amino]-benzonitrile] |  |  |  | 0.0158 µM | 99.7 µM
13 |  | Cc1ccccc1Oc1cn(C)c(=O)c(Nc2ccc(C#N)cc2)n1 [Compound 2, 4-[[3,4-dihydro-4-methyl-6-(2-methylphenoxy)-3-oxopyrazinyl]amino]-benzonitrile] |  |  |  | 0.004 µM | 100 µM
14 | 195 °C | Cc1ccccc1Sc1nc(Nc2ccc(C#N)cc2)c(=O)n(Cc2ccccc2)c1C [Compound 27, 4-[[6-[(2-methylphenyl)thio]-5-methyl-3,4-dihydro-3-oxo-4-(phenylmethyl)pyrazinyl]amino]-benzonitrile] |  |  |  |  | 
15 |  | Cc1ccccc1Sc1nc(Nc2ccc(C#N)cc2)c(=O)n(C)c1C [Compound 24, 4-[[3,4-dihydro-4,5-dimethyl-6-[(2-methylphenyl)thio]-3-oxopyrazinyl]amino]-benzonitrile] | 0.0251 µM | 3981 | 99.9 µM |  | 
16 |  | Cc1ccc(Oc2cn(C)c(=O)c(Nc3ccc(Cl)cc3)n2)c(C)c1 [Compound 22, 3-[(4-chlorophenyl)amino]-5-(2,4-dimethylphenoxy)-1-methyl-2(1H)-pyrazinone] | 0.02 µM | 5012 | 100 µM |  | 
17 |  | Cc1ccccc1Oc1nc(Nc2ccc(Cl)cc2)c(=O)n(C)c1C [Compound 6, 3-[(4-chlorophenyl)amino]-1,6-dimethyl-5-(2-methylphenoxy)-2(1H)-pyrazinone] | 0.1 µM | 1000 | 100 µM |  | 
18 | 290 to 291 °C | Cc1ccccc1Sc1nc(Nc2ccc(C#N)cc2)c(=O)[nH]c1C [Compound 28, 4-[[3,4-dihydro-5-methyl-6-[(2-methylphenyl)thio]-3-oxopyrazinyl]amino]-benzonitrile] |  |  |  |  | 
19 |  | Cc1cc(C#N)cc(C)c1Oc1nc(Nc2ccc(C#N)cc2)c(=O)n(C)c1C [Compound 1, 4-[[6-[(4-cyanophenyl)amino]-4,5-dihydro-3,4-dimethyl-5-oxopyrazinyl]oxy]-3,5-dimethyl-benzonitrile] | 0.0063 µM | 15849 | 99.8 µM |  | 
20 |  | Cc1ccc(Oc2nc(Nc3ccc(Cl)cc3)c(=O)n(C)c2C)c(C)c1 [Compound 23, 3-[(4-chlorophenyl)amino]-5-(2,4-dimethylphenoxy)-1,6-dimethyl-2(1H)-pyrazinone] | 0.0501 µM | 1995 | 99.9 µM |  | 
21 |  | Cc1ccc(Sc2nc(Nc3ccc(Cl)cc3)c(=O)n(C)c2C)c(C)c1 [Compound 8, 3-[(4-chlorophenyl)amino]-5-[(2,4-dimethylphenyl)thio]-1,6-dimethyl-2(1H)-pyrazinone] | 0.501 µM | 200 | 100 µM |  | 
22 |  | Cc1cc(C)c([S+]([O-])c2nc(Nc3ccc(C#N)cc3)c(=O)n(C)c2C)c(C)c1 (stereo not shown) [Compound 18] | 0.004 µM | 25119 | 100 µM |  | 

Row | SMILES | melting point | IC50 (HIV-1; [2]) | SI (selectivity index, ratio of CC50 to IC50) (HIV-1) | CC50 [1] | IC50 (HIV-1) | CC50 (mock-infected MT-4 cells)
23 | Cc1ccc(Oc2cn(Cc3ccccc3)c(=O)c(Nc3ccc(C#N)cc3)n2)c(C)c1 [Compound 9, 4-[[6-(2,4-dimethylphenoxy)-3,4-dihydro-3-oxo-4-(phenylmethyl)pyrazinyl]amino]-benzonitrile] | 175 °C | 0.0316 µM | 3162 | 99.9 µM |  | 
